Measured values taken from patent US20250351832A1, “PHYTOCHEMICALS AS BIOPESTICIDES AND BIOSTIMULANTS” (KAY BEE BIO ORGANICS PVT. LTD., priority 2024, published 2025).
Like-named read-outs stand apart in the source and are kept apart here.

Legend:
[1] = test system: Alternaria alternata; test: In vitro poisoned food technique against fungus (Ex. 20); type: cell-based
[2] = test system: Alternaria alternata; test: Alternaria leaf spot/blight on inoculated tomato plants (Ex. 28); type: in vivo; settings: in vivo
[3] = test system: tomato seedlings; test: Response of tomato plants, greenhouse growth (Ex. 30); type: in vivo; settings: tomato seedlings, dose 1 ml/gm/lit
[4] = test system: chili seedlings; test: Response of chili plants, greenhouse growth (Ex. 31); type: in vivo; settings: chili seedlings, dose 1 ml/gm/lit
[5] = test system: Aphid; settings: in vivo
[6] = test system: Helicoverpa armigera; settings: in vivo
[7] = test system: Spodoptera litura; settings: in vivo
[8] = test system: Spodoptera litura; settings: in vivo; remark: listed apart in the source
[9] = test system: Thrips; settings: in vivo
[10] = cited from earlier work
[11] = test system: Spodoptera litura; test: whole plant or invertebrate; settings: 72 h
[12] = test system: Thrips; test: whole plant or invertebrate; settings: in Gossypium hirsutum, 48 h
[13] = test system: Aphid; test: whole plant or invertebrate; settings: 48 h
[14] = Table 13, descriptive, no test described
[15] = read-out: % Corrected Mortality at 48 Hrs.
[16] = read-out: % Mortality at 48 Hrs.

With `COc1cc(CNC(=O)CCCC/C=C/C(C)C)ccc1O` [Capsaicin] the inhibition of growth at 1 mL or g/L ([1]; […]) was 42.6%, the “Mean colony Diameter (mm)” value ([1]; poisoned food technique, PDA medium, dose 1 ml/gm/lit., after seven days) was 50.50 mm and the “% Disease reduction over Control” value [2] was 51.24%. The “Plant Height 5th Day” value ([3]; 5th day after application) was 7.11 cm, the “Stem Girth 5th Day” value ([3]; 5th day after application) was 1.92 mm and the “Plant Height 10th Day” value ([3]; 10th day after application) was 7.86 cm. The “Stem Girth 10th Day” value ([3]; 10th day after application) was 2.01 mm, the “Plant Height % Increase over pre on 10th Day” value ([3]; 10th day) was 29.28% and the “Stem Girth % Increase over pre on 10th Day” value ([3]; 10th day) was 58.60%. The “CCI 5th Day” value ([3]; 5th day after application) was 14.66, the “CCI % Increase over pre on 10th Day” value ([3]; 10th day) was 21.99% and the “Root Length (cm) 10th Day” value ([3]; 10th day) was 3.95 cm. The “CCI 10th Day” value ([3]; 10th day after application) was 15.42, the “Root Length % Increase over control” value ([3]; 10th day, vs water control) was 18.74% and the “CCI 5th Day” value ([4]; 5th day after application) was 12.21. For the same molecule, the “Plant Height (cm) 5th Day” value ([4]; 5th day after application) was 6.30 cm, the “CCI % Increase over pre on 10th Day” value ([4]; 10th day) was 46.96% and the “Plant Height % Increase over pre on 10th Day” value ([4]; 10th day) was 43.26%. The “Root Lenght (cm) 10th Day” value ([4]; 10th day) was 2.99 cm, the “Stem Girth % Increase over pre on 10th Day” value ([4]; 10th day) was 43.31% and the “CCI 10th Day” value ([4]; 10th day after application) was 13.52. For the same molecule, the “Plant Height (cm) 10th Day” value ([4]; 10th day after application) was 6.59 cm, the “Root Lenght % Increase over control” value ([4]; 10th day, vs water control) was 9.09% and the “% Corrected Mortality at 48 Hrs.” value [5] was 57.14%. For the same molecule, the “Total No. of dead insect at 72 Hrs.” value [6] was 4.50, the “Total No. of dead insect at 72 Hrs.” value [7] was 4.25 and the “% Corrected Mortality at 72 Hrs.” value [8] was 44.74%. The “% Mortality at 72 Hrs.” value [8] was 47.50%, the “% Corrected Mortality at 48 Hrs.” value [9] was 55.56% and the “% Mortality at 48 Hrs.” value [9] was 60.00%. For the same molecule, the “Acaricidal Activity - Mode of action” value [10, 14] was “Acts as a mite feeding”, the “Antifungal Activity - Mode of action” value [10, 14] was “Inhibits the hyphae” and the “Antioxidant Activity - Mode of action” value [10, 14] was “Showed antioxidant”. The “Bactericidal Activity - Mode of action” value [10, 14] was “Inhibition of bacterial”, the “Insecticidal Activities - Mode of action” value [10, 14] was “Fumigant and larvicidal” and the “Virucidal Activity - Mode of action” value [10, 14] was “Inhibited viral replication”. The “Phytotonic Effect” value ([10]; Table 13, effect on plants, descriptive) was “Increase”, the mortality at 1 mL or g/L ([11]; read-out: % Corrected Mortality at 72 Hrs.) was 39.5% and the mortality at 1 mL or g/L ([11]; read-out: % Mortality at 72 Hrs.) was 42.5%. It also gave a mortality at 1 mL or g/L [12, 15] of 57.1%, a mortality at 1 mL or g/L [12, 16] of 62.5% and a mortality at 1 mL or g/L [13, 15] of 55.9%. For the same molecule, the mortality at 1 mL or g/L [13, 16] was 62.5%.
